# Test results reported in patent publication US8097585B2, “Methods of treating inflammation by administration of heme oxygenase-1 and products of heme degradation” (priority 2002, dated 2012).
# Structures can show the parent of a compound that is named as a salt.
# How the values were obtained:
# [1] = Total antioxidant capacity of graft, SITx with 6 hours preservation; type: in vivo, LEW rats
# Text: Antioxidant capacity after BV treatment. the total antioxidant capacity or antioxidant power within the graft specimens was quantitatively measured. Antioxidant levels in the graft were detected using Total Antioxidant Power® (Oxford Biomedical Research, Oxford, Mich.), according to the manufacturer's instructions. In this procedure, the evaluation of the antioxidant level in a sample is detected by evaluation of Cu^+ derived from Cu^++ by the combined action of all antioxidants present in the sample.
# TNF-alpha = experiment: Endotoxic shock (LPS) model, serum TNF-alpha; type: in vivo, Sprague-Dawley rats; details: biliverdin i.p. […] 17 h and 1 h prior to and 8 h after LPS 3 mg/kg i.v.
# Procedure: Treatment Protocol. Endotoxin (lipopolysaccharide/LPS; Sigma; E. coli serotype 0128:B7; 3 mg/kg, i.v.) was administered to male Sprague-Dawley, resulting in an acute non-lethal inflammation. In rats, a sublethal dose of LPS results in a moderate lung inflammation characterized by neutrophil accumulation and protein accumulation in the airspace, both markers of lung inflammation. The pro-inflammatory cytokine TNF-alpha increases very rapidly in the serum, peaking by 60-90 minutes. This is followed by increases in IL-10, a prototypical anti-inflammatory cytokine that peaks 8-12 hr later.
# Administration of Biliverdin. Biliverdin (Frontier Scientific: prepared in PBS following solubilization in NaOH) was administered i.p. at […] 17 hours prior to, one hour prior to, and eight hours after LPS administration.
# Bronchoalveolar Lavage. A bronchoalveolar lavage (BAL) was performed 24 hours after LPS administration. Serum cytokines were measured using commercially available ELISA kits (R&D Systems Inc.) per the manufacturer's instructions. Total protein was determined via a standard Bradford assay based on a standard curve. […] Total cell count was determined as well as differential analysis of cell type and morphology via Diff-Quik® Fixative (American Scientific Products) staining of a sample of the lavagate.
# intestinal graft = experiment: Graft permeability, everted gut sac method with FD4; type: in vivo, LEW rats; details: BV treated grafts
# Procedure: Graft permeability. The preparation of everted gut sacs was performed in ice-cold modified Krebs-Henseleit bicarbonate buffer [KHBB (pH 7.4)] consisting of 10 mM HEPES, 137.0 mM NaCl, 5.36 mM KCl, 4.17 mM NaHCO3, 0.34 mM Na2HPO4, 0.44 mM KH2PO4, 0.41 mM MgSO47H2O, 0.49 mM MgCl26H20, 1.26 mM CaCl2, and 19.45 mM glucose. One end of the gut segment was ligated with 4-0 silk. The resulting gut sac was everted using a thin plastic rod. A groove was cut into the tip of a 5 ml plastic syringe and 1.5 mL of KHBB was drawn into the syringe. The open end of the everted gut sac was secured to the groove using 4-0 silk, and the intestine was gently distended by injecting the KHBB from the syringe. […] Following a 30 min incubation, the length of the sac was measured, and 1.0 mL of the fluid within the gut sac was collected. […] Subsequently, 300 ul of the supernatant was diluted with 3.0 mL of phosphate buffered saline, and the fluorescence of the solution was measured using a Perkin-Elmer LS-50 fluorescence spectrophotometer (Palo Alto, Calif.) at an excitation wave length of 492 nm (slit width=10.0 nm) and an emission wavelength of 515 nm (slit width=[…]).
# Graft permeability. […] Graft permeability was determined by the everted gut sac method using 4 Kd Fluorescein isothiocyanate dextran.
compound,measurement,setting,value
"C=CC1=C(C)/C(=C/C2=NC(=C\c3[nH]c(/C=C4\NC(=O)C(C)=C4C=C)c(C)c3CCC(=O)O)/C(CCC(=O)O)=C2C)NC1=O [biliverdin, biliverdin dihydrochloride]",antioxidant capacity of the transplanted intestine,[1],increased the antioxidant capacity of the transplanted intestine to normal levels
same,levels of LPS-induced TNF-alpha,TNF-alpha,reduced
same,inhibition of the increase of intestinal permeability,intestinal graft,~60%
